Assay results published in patent publication US10874334B1, “Methods and systems for quantification of blood-brain barrier permeation of glycosylated peptides” (ARIZONA BOARD OF REGENTS ON BEHALF OF THE UNIVERSITY OF …, priority 2016, dated 2020).

Tests used:
[1] = Degradation study of enkephalins spiked into cerebral spinal fluid (CSF) from rats; conditions: for stability (degradation) in CSF with 5% HAc: CSF from rats + 5% HAc (+CSF+HAc), compared with isotonic aCSF
[2] = Degradation study of enkephalins spiked into rodent serum (FIA-MS^n); conditions: for stability (degradation) in serum with 5% acetic acid: rat serum + 5% acetic acid (HAc), 60-minute period before measurements (Ser+HAc+60 min); for stability (degradation) in serum: rat serum, peptides incubated in serum for 60 minutes prior to the study (Ser+60 min)
Method: Ser refers to when Enkephalins were added to rat serum and degradation was allowed to proceed and the remaining enkephalin levels were measured at specific time points. […] Ser+HAc+60 min refers to when 5% acetic acid (HAc) was added to the serum, preserving enkephalins by inhibiting degradation during a 60 minute period before beginning measurements (Ser+HAc+60 min.). All error bars are SEM. Statistical significance is indicated by asterisks when p<0.05.
Degradation studies of enkephalins in biological fluids were performed by […]. […] Enkephalins were added to rat serum and degradation was allowed to proceed and the remaining enkephalin levels were measured at specific time points (Ser).

Molecule	stability (degradation) in CSF ([1]; CSF from rats (+CSF), single exponential decay fit)	stability (degradation) in CSF with 5% HAc [1]	stability (degradation) in serum with 5% acetic acid [2]	stability (degradation) in serum [2]
CC(C)C[C@H](NC(=O)[C@H](Cc1ccccc1)NC(=O)CNC(=O)CNC(=O)[C@@H](N)Cc1ccc(O)cc1)C(=O)O [Leu-Enkephalin, leucine enkephalin]	degradation occurs in CSF over 20 minutes	prevents the degradation	preserved enkephalins by inhibiting degradation	degradation was already complete
methionine enkephalin [Met-Enkephalin]		prevents the degradation	preserved enkephalins by inhibiting degradation	degradation was already complete
